The results in this text go back to PubChem BioAssay AID2305 (GlaxoSmithKline (GSK), 2010).

The experiment relates to P. falciparum 3D7 growth, pLDH absorbance. In words: P. falciparum 3D7 growth inhibition, dose response, strain 3D7 (AID 2305).

Structures are written as SMILES.

`COc1cccc(CCc2ccc(O)c3c2C[C@H]2C[C@H]4[C@H](N(C)C)C(=O)C(C(N)=O)=C(O)[C@@]4(O)C(=O)C2=C3O)c1` returned a 50% inhibitory concentration (IC50) of 850 nM. As to `CC(=O)Nc1cccc(C(=O)Nc2ccc(-c3cccc(-c4nc5c(C)cccc5[nH]4)c3)cc2)c1`, the half-inhibitory concentration (IC50) worked out at 790 nM. `CC(C)C(=O)NC(c1ccc(N(C)C)cc1)c1cc(Cl)c2cccnc2c1O` (stereo not drawn) displayed an IC50 of 860 nM. The result for `Cc1ccc(C)c(CC(=O)N2CCC(n3c(C)nc4ccc(F)cc43)CC2)c1` reads 190 nM; that for `Cc1nc(-c2cccc3c(NC(=O)Nc4ccc5nccc(N6CCN(C)CC6)c5c4)cccc23)no1`, 230 nM. The result for `O=C(C=Cc1cccs1)N(CCCn1ccnc1)c1nc2ccc(F)cc2s1` reads 1600 nM.

The compound `CC(C)(C)c1ccc(Cc2cccc3nc(N)nc(N)c23)cc1` registered a half-maximal inhibitory concentration (IC50) of 830 nM. The figure for `COc1ccccc1-c1nc2c(ccc3nc(N)nc(N)c32)[nH]1` is 180 nM; for `CCOC(=O)c1ccc(NC(=O)c2ccccc2C(=O)O)cc1` it is 920 nM; for `O=C(CCCCCNC(=O)c1ccc(O)c(-c2ccc(Cl)c(Cl)c2)c1)NC1CCCc2ccccc21` (stereo not drawn) it is 760 nM. The result for `Cc1ccccc1C1CCN(C2CCC(NC(=O)/C=C/c3ccc(F)cc3)CC2)CC1` (stereo not drawn) reads 1340 nM; that for `CC[C@H](C)CNC(=O)c1cccc(-c2ccc(CN3CCC(N4CCCC4)CC3)cc2)n1`, 790 nM; that for `Cc1nn(-c2cccc(Cl)c2)c2c1C(C(=O)c1ccc3c(c1)OCO3)CC(=O)N2` (stereo not drawn), 370 nM. The result for `COc1ccc(-c2ccc(NC(=O)c3ccc(C#N)cc3)cc2)cc1CN1CCCN(C)CC1` reads 150 nM.

The compound `Cc1[nH]c(C)c(-c2ccc(Oc3cccc(OC(F)(F)F)c3)cc2)c(=O)c1Cl` came in with a half-maximal inhibitory concentration (IC50) of 680 nM. The result for `Fc1cc(Cl)ccc1Nc1ccnc(Nc2ccc3cn[nH]c3c2)n1` reads 740 nM.

Compound `CCOc1cc(NCCCNc2ncc([N+](=O)[O-])cc2C)nc2ccccc12` gave an IC50 of 690 nM.

As for `Cc1c(-c2ccccc2)ccc2[nH]cc(CC#N)c12`, the IC50 worked out at 700 nM. In turn, `CCOc1ccc2nc(-c3ccccc3)cc(NN=Cc3ccncc3)c2c1` displayed a 50% inhibitory concentration (IC50) of 150 nM. The figure for `COc1cccc(-c2cnc(N)c(-c3nc4ccc(C(F)(F)F)cc4[nH]3)c2)c1` is 650 nM; for `CC(C)COc1ccc(Cl)cc1Cc1ccc(-c2nc3ccc(Br)cc3[nH]2)o1` it is 1400 nM. In the case of `CC(C)c1ccc(S(=O)(=O)N(c2ccc3c(c2)OCO3)C2CCN(Cc3ccccc3)C2)cc1` (stereo not drawn), the IC50 is 350 nM. The figure for `CON=Cc1ccn(-c2ccc(O)c3c2C[C@H]2C[C@H]4[C@H](N(C)C)C(=O)C(C(N)=O)=C(O)[C@@]4(O)C(=O)C2=C3O)c1` is 770 nM; for `COc1ccc(CNCc2ccc(-c3ccc(-c4nc5ccccc5[nH]4)cc3)cc2)cc1` it is 240 nM; for `CC(=O)Nc1nc(C(=O)Nc2cccc(-c3ccc(-c4nc5ccc(F)cc5[nH]4)cc3)c2)cs1` it is 290 nM. The compound `Cc1cccc2[nH]c(-c3ccc(-c4cccc(NC(=O)c5cncn5C)c4)cc3)nc12` gave a concentration for half-maximal inhibition (IC50) of 860 nM. The figure for `C=CCc1c(C(=O)NCC23CC4CC(CC(C4)C2)C3)[nH]c2ccccc2c1=O` is 1030 nM. The figure for `Cc1cc2nc(-c3cc(-c4cccc(NS(C)(=O)=O)c4)cnc3N)[nH]c2cc1C` is 670 nM; for `CCCCCCC(CC)c1cc(O)c2c(c1)OC(C)(C)c1ccncc1-2` (stereo not drawn) it is 810 nM. The result for `CCOc1ccc2c(NN=Cc3ccccn3)cc(C)nc2c1` reads 860 nM; that for `COc1ccc(NC(=O)/C=C/c2cc(Br)ccc2F)cc1OCCN(C(C)C)C(C)C`, 760 nM. Consider `Cc1cccc2[nH]c(-c3ccc(-c4cccc(NC(=O)CCc5cnc[nH]5)c4)cc3)nc12`, for which the half-maximal inhibitory concentration (IC50) is 410 nM. The figure for `Cc1cccc2[nH]c(-c3cccc(-c4cccc(NC(=O)CCc5cnc[nH]5)c4)c3)nc12` is 550 nM; for `CCOc1ccc2c(c1)C(C)(c1ccc3c(c1)C(C)CC(C)(C)N3)CC(C)(C)N2` (stereo not drawn) it is 800 nM; for `COc1ccc2c(NN=Cc3cccc(C)n3)ccnc2c1` it is 760 nM. The figure for `O=C(Nc1cccc(-c2ccc(-c3nc4ccc(C(F)(F)F)cc4[nH]3)cc2)c1)Nc1ccc(Cl)c(Cl)c1` is 890 nM. The result for `CCOc1cc(NCCSCc2nc[nH]c2C)nc2ccccc12` reads 790 nM. Take `O=C(/C=C/c1ccc(I)cc1)NCCCCCN1CCC(c2c[nH]c3ccccc23)CC1`: the IC50 is 840 nM. For `CCN(CC)c1nc(Nc2cc(C)ccc2C)nc(Nc2ccccc2O)n1`, the concentration for half-maximal inhibition (IC50) was determined as 640 nM. Regarding `CC(C)C(C(=O)n1ncc2c3c(N)nc(N)nc3ccc21)C(C)C`, the IC50 came to 650 nM.

`COc1ccc(Nc2ncc3c(-c4cccc(NC(=O)Cc5ccncc5)c4)c[nH]c3n2)cc1OC` yielded a concentration for half-maximal inhibition (IC50) of 1230 nM. For `CCCCCCCCc1[nH]c(C)c(Br)c(=O)c1Br`, the concentration for half-maximal inhibition (IC50) is 180 nM. The result for `COc1ccc(CN2CCC(C(=O)Nc3cccc(-c4cccc(Cl)c4)c3)CC2)cc1O` reads 970 nM; that for `CCNc1cc(C)nc(Nc2ccc(NC(=O)c3ccccc3Cl)cc2)n1`, 1010 nM; that for `COc1cc(CNCCCCCCNCc2cc(OC)cc3ccccc23)c2ccccc2c1`, 590 nM. `Cc1ccc(C)c(CN2CCC(CNC(=O)c3cc4ccc5cccnc5c4[nH]3)CC2)c1` yielded a half-inhibitory concentration (IC50) of 990 nM. The result for `NC1CCN(c2nc(NCCc3ccc(O)cc3)nc(NCc3ccccc3-c3ccc(C(F)(F)F)cc3)n2)CC1` reads 750 nM; that for `CC(C)CNCc1ccc(-c2ccccc2CNC2CCN(Cc3ccccc3)CC2)cc1`, 570 nM. The result for `CCc1c(CCNCCCCCCNCCc2ccc(OC)c(OC)c2CC)ccc(OC)c1OC` reads 730 nM; that for `CC1CCCN(S(=O)(=O)c2cc(Br)cc3c2N(C(=O)C2CC2)CC3)C1` (stereo not drawn), 720 nM; that for `COC(=O)c1cccc(CNCc2ccc(-c3ccc(-c4nc5ccc(F)cc5[nH]4)s3)cc2)c1`, 590 nM.

In turn, `Cc1sc(CNCCCNc2cc(=O)c3ccccc3[nH]2)cc1Br` yielded an IC50 of 760 nM. `Cc1cc2ncn(-c3nccc(NCc4ccc(F)cc4)n3)c2cc1C` returned an IC50 of 890 nM. The result for `CC(C)CNC(=O)c1cncc(-c2ccc(CNC3Cc4ccccc4C3)cc2)c1` reads 700 nM. The figure for `CCn1c(C)cc(C=C2SC(=Nc3ccccc3)NC2=O)c1C` is 680 nM. The result for `CCC(=O)OC(CCN(CC)CC)(c1ccccc1)c1ccccc1` reads 370 nM. With `C=CCn1cc(C2CCN(CCCCNC(=O)c3sc(-c4ccc(C(F)(F)F)cc4)nc3CO)CC2)c2cc(OC)ccc21`, the IC50 was found to be 1040 nM. In turn, `FC(F)(F)c1ccc2nc(-c3cccc(-c4cccc(CNCC5CCCO5)c4)c3)[nH]c2c1` (stereo not drawn) displayed an IC50 of 420 nM. Compound `CCCn1c(SCC(=O)Nc2cc(Cl)ccc2Cl)n[nH]c1=O` returned an IC50 of 1000 nM. `CCCc1cc(OC)c(CC2c3cc(O)c(Cl)cc3C(c3ccccc3)CN2C)cc1OC` (stereo not drawn) displayed an IC50 of 430 nM. Consider `Cc1nnsc1C(=O)Nc1ccc(-c2cccc(-c3nc4c(C)cccc4[nH]3)c2)cc1`, for which the 50% inhibitory concentration (IC50) was 630 nM. With `Cc1c(-c2cccc(C(C)(C)NC3CCN(Cc4ccccc4)CC3)c2)cnc(N)c1C`, the IC50 was determined as 580 nM. `FC(F)(F)c1ccc(NC(=S)N2CCC(CN3CCC(c4c[nH]c5ccccc45)CC3)CC2)cc1` had an IC50 of 660 nM.

In the case of `COc1ccc(-c2nc(-c3ccc([N+](=O)[O-])cc3)no2)cc1OC`, the half-maximal inhibitory concentration (IC50) was 410 nM. Compound `O=C(/C=C/c1ccc(Cl)c(Cl)c1)NCCCCCN1CCC(NC(=S)Nc2ccc(Cl)cc2Cl)CC1` gave a half-maximal inhibitory concentration (IC50) of 740 nM.

As to `CN(C)C1CCN(Cc2ccc(N3CCN(Cc4cccc5[nH]ccc45)CC3)nc2)CC1`, the IC50 was found to be 1530 nM. Compound `COC(=O)c1ccc(C[C@@H](C)NC[C@H](O)c2cccc(OCc3ccccc3)c2)cc1` yielded a half-inhibitory concentration (IC50) of 1160 nM. On to `CN1CCC(NCc2ccc(-c3cnc(NCc4ccccc4)nc3)cc2)CC1`, for which the 50% inhibitory concentration (IC50) was 830 nM. The figure for `Cc1cccc2[nH]c(-c3cccc(-c4cccc(NC(=O)CC5NC(=O)c6ccccc65)c4)c3)nc12` (stereo not drawn) is 1030 nM; for `COc1ccc2nccc([C@@H](O)CN3CCC(NC(=O)c4cccc(C(=O)c5ccccc5)c4)CC3)c2c1` it is 690 nM. For the compound `CCCCCN=C(N)c1ccc(OCCCCCOc2ccc(C(N)=NCCCCC)cc2)cc1`, the IC50 came to 250 nM.

For `CC(C)CNCc1ccc(-c2cccc(-c3nc4ccccc4[nH]3)c2)cc1`, the IC50 came out at 630 nM. The result for `COCCNCc1cccc(-c2cccc(CN(C(=O)Nc3ccccc3)C3CCN(Cc4ccccc4)CC3)c2)c1` reads 130 nM.

As for `CCc1cccc(NC(=O)/C=C/c2ccc3c(c2)CN(C)CC3)c1`, the half-inhibitory concentration (IC50) turned out to be 770 nM. `CCOc1ccc2c(NN=Cc3ccc(OC)c(OC)c3)cc(C)nc2c1` came in with a half-maximal inhibitory concentration (IC50) of 700 nM. The figure for `COc1ccc2nccc([C@@H](O)CN3CCC(NC(=O)Cc4cccc5c(Br)cccc45)CC3)c2c1` is 800 nM; for `CC(C)c1cc(Oc2c(I)cc(CCNCc3ccccc3)cc2I)ccc1O` it is 540 nM. The figure for `CCOC(=O)c1cnc2cc(N3CCCC3)c(Cl)cc2c1OCC` is 110 nM; for `CCCN(Cc1ccc(OCC)cc1)Cc1cc(=O)c2cc(Cl)ccc2[nH]1` it is 1260 nM. The result for `O=C(/C=C/c1ccc(Cl)c(Cl)c1)N1CCC(C(O)CN2CCC(c3c[nH]c4ccccc34)CC2)CC1` (stereo not drawn) reads 860 nM; that for `Cc1[nH]c(CNCCCNc2cc(=O)c3ccccc3[nH]2)c(Br)c1Br`, 1040 nM; that for `Cc1cc(Nc2ccccc2)nc(NCCOc2ccccc2)n1`, 730 nM. In turn, `FC(F)(F)c1ccc(N2CCCN(Cc3cccc(-c4ccccc4CNCc4ccc5c(c4)OCO5)c3)CC2)nc1` showed an IC50 of 1190 nM.

The compound `N#Cc1c(N)n(CCc2ccc(F)cc2)c2nc3ccccc3nc12` had an IC50 of 970 nM. The result for `CC(=O)C1(c2ccccc2)CCN(CCC2(c3ccc(Cl)c(Cl)c3)CN(C(=O)CC(C)C)CCO2)CC1` (stereo not drawn) reads 640 nM; that for `O=C(Nc1ccc(C(=O)OCC(c2ccccc2)c2ccccc2)cc1)N[C@@H](Cc1ccc(O)cc1)C(=O)NC1CCN(Cc2ccc(O)cc2)C1` (stereo partly drawn), 780 nM. Compound `Cc1noc(-c2ccc3c(c2)CCN(CCC2CCC(NC(=O)c4cc5ccccc5[nH]4)CC2)CC3)n1` (stereo not drawn) displayed an IC50 of 690 nM. The figure for `N#Cc1ccc(-c2ccc(C(=O)NC3CCN(CCN4CCC(c5cn(CCO)c6ccccc56)CC4)CC3)cc2)cc1` is 760 nM.
